In patent US12209087B2, “AKT1 modulators” (Alterome Therapeutics, Inc., priority 2022, dated 2025) one finds IC50 data, which are given here for 11 molecules.

The assay deals with T1, full length AKT E17K (Homo sapiens, UniProt P31749, E17K).
T1 construct: host or cells: HEK-293 (ATCC CRL-1573)
T1 sequence (P31749 whole entry E17K): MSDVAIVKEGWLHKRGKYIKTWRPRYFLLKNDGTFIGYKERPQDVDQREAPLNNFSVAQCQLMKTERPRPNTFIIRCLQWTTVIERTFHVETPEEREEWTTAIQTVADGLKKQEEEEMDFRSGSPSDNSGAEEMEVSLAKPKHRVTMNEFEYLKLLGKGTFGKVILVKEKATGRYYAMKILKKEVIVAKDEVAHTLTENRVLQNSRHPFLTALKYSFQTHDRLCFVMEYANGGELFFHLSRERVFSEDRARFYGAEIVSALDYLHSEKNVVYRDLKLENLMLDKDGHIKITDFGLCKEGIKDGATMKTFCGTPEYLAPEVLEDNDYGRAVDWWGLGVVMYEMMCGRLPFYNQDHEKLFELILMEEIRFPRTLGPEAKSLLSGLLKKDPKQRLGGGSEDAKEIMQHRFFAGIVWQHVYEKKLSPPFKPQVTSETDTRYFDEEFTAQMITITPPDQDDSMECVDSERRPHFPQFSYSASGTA
The assay can be described thus: NanoBRET Target Engagement (TE) Assay. The format is cell-based. As to conditions: competitive tracer displacement in living cells, read-out: AKT1 E17K IC50. In outline: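 Compound and tracer incubated 2 h before luminescence at donor 450 nm and acceptor 600 nm, with extracellular signal inhibited. EC50 by sigmoidal variable-slope regression.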
In general terms: BRET reads energy transfer from a luciferase to a nearby fluorophore.
Usually IC50 stands for the concentration needed to halve the response being measured. For the molecule `N#Cc1nccc(N2CCN(Cc3ccc(-n4c(-c5cccnc5N)nc5ccc(N6CCOCC6)nc54)cc3)CC2)n1` [Example 235, 4-(4-(4-(2-(2-Aminopyridin-3-yl)-5-morpholino-3H-imidazo[4,5-b]pyridin-3-yl)benzyl)piperazin-1-yl)pyrimidine-2-carbonitrile], the IC50 is 60 to 600 nM.
For `N#Cc1ccnc(N2CCN(Cc3ccc(-n4c(-c5cccnc5N)nc5ccc(N6CCOCC6)nc54)cc3)CC2)n1` [Example 236, 2-(4-(4-(2-(2-Aminopyridin-3-yl)-5-morpholino-3H-imidazo[4,5-b]pyridin-3-yl)benzyl)piperazin-1-yl)pyrimidine-4-carbonitrile] the value was 15 to 60 nM.
For `N#Cc1cc(N2CCN(Cc3ccc(-n4c(-c5cccnc5N)nc5ccc(N6CCOCC6)nc54)cc3)CC2)ncn1` [Example 237, 6-(4-(4-(2-(2-Aminopyridin-3-yl)-5-morpholino-3H-imidazo[4,5-b]pyridin-3-yl)benzyl)piperazin-1-yl)pyrimidine-4-carbonitrile] the value was 15 to 60 nM.
On to `N#Cc1nccc(N2CCN(Cc3ccc(-n4c(-c5cccnc5N)nc5ccc(-c6cccc(=O)[nH]6)nc54)cc3)CC2)n1` [Example 238, 4-(4-(4-(2-(2-Aminopyridin-3-yl)-5-(6-oxo-1,6-dihydropyridin-2-yl)-3H-imidazo[4,5-b]pyridin-3-yl)benzyl)piperazin-1-yl)pyrimidine-2-carbonitrile], for which the IC50 is 15 to 60 nM.
For `N#Cc1nccc(NC2CCN(Cc3ccc(-n4c(-c5cccnc5N)nc5ccc(N6CCOCC6)nc54)cc3)CC2)n1` [Example 239, 4-((1-(4-(2-(2-Aminopyridin-3-yl)-5-morpholino-3H-imidazo[4,5-b]pyridin-3-yl)benzyl)piperidin-4-yl)amino)pyrimidine-2-carbonitrile] the value was below 15 nM.
For `N#Cc1ccnc(NC2CCN(Cc3ccc(-n4c(-c5cccnc5N)nc5ccc(N6CCOCC6)nc54)cc3)CC2)n1` [Example 240, 2-((1-(4-(2-(2-Aminopyridin-3-yl)-5-morpholino-3H-imidazo[4,5-b]pyridin-3-yl)benzyl)piperidin-4-yl)amino)pyrimidine-4-carbonitrile] the value was 15 to 60 nM.
As to `N#Cc1cc(NC2CCN(Cc3ccc(-n4c(-c5cccnc5N)nc5ccc(N6CCOCC6)nc54)cc3)CC2)ncn1` [Example 241, 6-((1-(4-(2-(2-Aminopyridin-3-yl)-5-morpholino-3H-imidazo[4,5-b]pyridin-3-yl)benzyl)piperidin-4-yl)amino)pyrimidine-4-carbonitrile], the IC50 fell in the range of 15 to 60 nM.
For `N#Cc1nccc(N2CCN(Cc3ccc(-n4c(-c5cccnc5N)nc5ccc(-c6ccc(F)cc6)nc54)cc3)CC2)n1` [Example 242, 4-(4-(4-(2-(2-Aminopyridin-3-yl)-5-(4-fluorophenyl)-3H-imidazo[4,5-b]pyridin-3-yl)benzyl)piperazin-1-yl)pyrimidine-2-carbonitrile], the IC50 was in the range of 15 to 60 nM.
On to `N#Cc1ccnc(N2CCN(Cc3ccc(-n4c(-c5cccnc5N)nc5ccc(-c6ccc(F)cc6)nc54)cc3)CC2)n1` [Example 243, 2-(4-(4-(2-(2-Aminopyridin-3-yl)-5-(4-fluorophenyl)-3H-imidazo[4,5-b]pyridin-3-yl)benzyl)piperazin-1-yl)pyrimidine-4-carbonitrile], for which the IC50 fell in the range of 60 to 600 nM.
For `N#Cc1nc(C(=O)NCc2ccc(-n3c(-c4cccnc4N)nc4cccnc43)cc2)cs1` [Example 244, N-(4-(2-(2-Aminopyridin-3-yl)-3H-imidazo[4,5-b]pyridin-3-yl)benzyl)-2-cyanothiazole-4-carboxamide] the value was 600 to 10000 nM; for `N#Cc1nc(C(=O)N2CCN(Cc3ccc(-n4c(-c5cccnc5N)nc5ccc(-c6ccccc6)nc54)cc3)CC2)cs1` [Example 247, 4-(4-(4-(2-(2-Aminopyridin-3-yl)-5-phenyl-3H-imidazo[4,5-b]pyridin-3-yl)benzyl)piperazine-1-carbonyl)thiazole-2-carbonitrile], below 15 nM.
